Experimental data from patent US9844564B2 (Industrial Cooperation Foundation Chonbuk National …, priority 2012, dated 2017).

Assays:
[1] = tested on: DOX-induced cardio and hepatotoxicities; assay: Doxorubicin (DOX)-induced acute heart failure animal model; assay type: in vivo, mice
Description: This animal model is associated with an increase in oxidative stress and causes significant hepatopathy after DOX injection.
Specifically, 20-week-old male mice were injected intraperitoneally once with 20 mg/kg of DOX. […] Mortality was observed up to 10 days after DOX administration. After 10 days, the mice were sacrificed and the expressions of enzymes in the heart and liver tissues were analyzed. The cardiac function of the mice was also measured by echocardiogram.

[2] = tested on: RAW 264.7 cells activated with PMA; assay: ROS production in PMA-activated cells (DCFH-DA, flow cytometry); assay type: cell-based; details: PMA-stimulated; VA 0.5 mM, PVAX 100 μg
Description: The cells were treated with […] to stimulate the production of reactive oxygen species in the cells. After 4 hours, the cells were treated with DCFH-DA (dichlorofluorescin-diacetate), after which DCF ([…]) (a marker of intracellular oxidative stress) was analyzed using a flow cytometer (Becton Dickinson, US).

RAW 264.7 cells = assay: NO production in LPS-treated cells (Griess reaction); assay type: cell-based; details: LPS-treated RAW 264.7, Griess
Description: The concentration of NO was determined using a colorimetric assay based on the Griess reaction. 50 μL of cell culture medium was collected and given 100 μL of Griess reagent (6 mg/mL) at room temperature for 10 min, and then the NO concentration was determined by measuring the absorbance at 540 nm using a microplate reader (Synergy MX, BioTek Instruments, US). The NO standard curve was constructed using known concentrations of sodium nitrite.

[3] = tested on: OVA-induced allergic airway inflammation; assay: Mouse model of ovalbumin (OVA)-induced allergic asthma; assay type: in vivo, BALB/c mice; details: OVA-sensitized and challenged mice, ELISA
Description: On days 15, 16 and 17, mice were challenged intranasally with 50 μg of OVA. […] A sham group was given PBS only. On day 19, the mice were sacrificed and lung lobes were isolated along with the trachea. Lungs were also lavaged with 500 μL of PBS introduced through the trachea. BALF (bronchiolavage fluid) was centrifuged at 300×g for 5 min, and cells were rinsed and resuspended with PBS. Aliquots of the cell suspension were applied to slides by Cytospin (Hanil, Korea) at 500×g for 5 minutes allowed to air dry and stained with modified Wright's stain (Hema-3, Fisher Scientific). The numbers of macrophages, eosinophils, neutrophils and lymphocytes were determined morphologically and a minimum of 200 cells per slide were counted under the microscope (Eclipse, Nikon, Japan). The level of TNF-α in the supernatant of BALF was measured with an ELISA kit as advised by manufacturer (eBioScience, San Diego, Calif.). Lungs were perfused with PBS, removed and fixed in 4% buffered formalin. Lungs were embedded in paraffin and serial paraffin sections (3 μm) were cut. The sections were stained with hematoxylin (Yeongdong Pharma, Korea) and eosin (Showa Chemicals, Japan). Results are illustrated in FIGS. 49-51.

[4] = Particle stability versus loading ratio; assay type: physicochemical
Excerpt: However, PVAX allowed greater ratio of VA-CHDM (up to 60%), providing greater therapeutic effects without significant compromise of the stability.

[5] = H2O2 scavenging by PVAX or MnP-PVAX microparticles (amplex red assay); details: 10 μM H2O2, 1 mg microparticles, 37° C., 6 or 24 h
Description: After short centrifugation, the concentration of H2O2 in the supernatant was measured using an amplex red assay (Invitrogen, US).

[6] = echocardiogram, DOX-treated mice

COc1cccc2c1C(=O)c1c(O)c3c(c(O)c1C2=O)C[C@@](O)(C(=O)CO)C[C@@H]3O[C@H]1C[C@H](N)[C@H](O)[C@H](C)O1 [DOX, doxorubicin]
survival ([1]; 10 days after DOX, p<0.05): 35% | ejection fraction (EF), mean [1, 6]: 25.54 | fractional shortening (FS), mean [1, 6]: 50.41 | mortality rate ([1]; observation up to 10 days after DOX 20 mg/kg i.p., PVAX daily): 65%

COc1cc(CO)ccc1O [VA, 4-(hydroxymethyl)-2-methoxyphenol]
intracellular ROS generation (DCF fluorescence) [2]: only slightly suppressed ROS generation | inhibitory effects on NO production (RAW 264.7 cells): inhibitory effects on NO production, not significant | expression of TNF-α in BALF [3]: suppressed the expression of TNF-α

poly(p-hydroxy-benzyl alcohol (HBA)-oxalic acid) copolymer [HPOX]
particle stability / feasibility of loading [4]: not feasible due to instability of the particles

C1=Cc2cc3ccc(cc4nc(cc5ccc(cc1n2)[nH]5)C=C4)[nH]3.[Mn] [MnP, manganese porphyrin]
H2O2 scavenging activity [5]: H2O2 scavenging activity in a time-dependent manner | inhibitory effects on NO production (RAW 264.7 cells): inhibitory effects on NO production, not significant
